Experimental data published in US20050142204A1 (priority 2001, published 2005).

What was measured:
[1] = human, in vivo, 552 mg
Procedure: Four volunteers were invited randomly to take part in the trial. The volunteers were in a rested and fasted state when the trial began. A single dose of 552 mg (two soft gelatine capsules) was administered and blood samples were drawn 15 times over 36 hours.
Quantitative analysis of the blood samples was conducted using an HPLC method developed and validated at the Research Institute for Industrial Pharmacy. Results of the analysis were evaluated statistically and values for AUC, Cmax and tmax were obtained.
A) Chromatographic Condition: • Analytical instrument: HP1050 series HPLC with a pump, autosampler, UV detector and Chemstation Rev.
B) Sample Preparation with enzymatic hydrolysis: • 1. Pipet 1 ml of plasma into a 5 ml siliconised glass test tube. • 2. Add 1 ml of 0.2 M sodium acetate-acetic acid buffer, pH 5.0. • 3. […] Vortex mix for 10 seconds, seal and incubate at 40° C. for 12 hours. • 5. Add 0.5 ml of the internal standard solution and centrifuge at 14000 rpm (4900 RCF) for 10 minutes before applying to the SPE columns.
C) Internal Standard Solution: • 1. Weight approximately 5 mg of acenaphthene accurately and dissolve in 250 ml of solvent. • 2. Add 0.5 ml of this solution to all standards and samples.
D) Standard Solution: • 1. […] Make further dilutions of 5 ml to 100 ml and 10 ml to 50 ml in water to obtain 80, 16- and 4.0 μg/ml stock solutions.
3. […]

[2] = topical and oral; Bhargava & Leonard 1996; cited from earlier work
[3] = cited from earlier work
[4] = system: fatty acid synthesis in Plasmodium falciparum; settings: cited from earlier work
Solubility of triclosan = format: physicochemical
malaria parasites = settings: Surolia 2001, cited from earlier work

Structure (SMILES): Oc1cc(Cl)ccc1Oc1ccc(Cl)cc1Cl [triclosan]
- bioavailability [1]: good in three of the four volunteers
- safety in toxicity studies [2]: safe topically as well as orally
- solubility in water [3]: very low solubility in water
- concentration sufficient for 50% inhibition of fatty acid synthesis ([4]; Surolia and Surolia (2001:168), printed in brackets beside the μM value): 580 ng/mL
- IC50 ([4]; read-out: concentration sufficient for 50% inhibition of fatty acid synthesis, Surolia and Surolia (2001:168)): 3000 nM
- solubility in oils (Solubility of triclosan): very soluble in oils
- activity against malaria parasites (malaria parasites): active against malaria parasites
- effective dose (malaria parasites; malaria): 28 to 38 mg/kg
